Reference: patent publication US11166924B2, “N-methyl-d-aspartate receptor allosteric modulators and methods for their use” (Qingdao Primedicine Pharmaceutical Company, Ltd., priority 2016, dated 2021)

Columns and labels:
GluN1/GluN2A^F115Y = molecular target: T1, GluN1/GluN2A^F115Y (Rattus norvegicus, UniProt P35439+Q00959, F115Y); assay: Patch clamp in HEK293 cells expressing mutant GluN1/GluN2A F115Y; format: cell-based
T1 construct: expressed in transfected cells; host or cells: HEK293
Description: (§1) Whole cell patch-clamp recordings were performed under voltage-clamp mode using an Axopatch 200B or 1D patch-clamp amplifier (Molecular Devices). Whole-cell currents were recorded at a holding potential of −60 mV unless indicated elsewhere, and signals were filtered at 2 kHz, digitized at 10 kHz (Digidata 1322A). Recording pipettes (3-5 MΩ) were filled with intracellular solution containing (mM): CsCl 140, HEPES 10, Mg-ATP 4, QX-314 5, pH 7.20; osmolarity, 290-295 mOsm. BAPTA (10 mM) was added in the intracellular solution (unless otherwise specified). The coverslips were continuously superfused with extracellular solution containing (mM): NaCl 140, KCl 5.4, HEPES 10, CaCl2 1.3, glucose 20, pH 7.4; osmolarity, 305-315 mOsm. NMDA-induced currents were applied by NMDA through perfusion fast-step (Warner Instruments). With perfusion fast-step system, NMDA application was achieved by using a two-square barrel glass tubing and depending on the age of the cultured neurons, CNQX (10 μM), TTX (0.5 μM) or BIC (10 μM) were added in the extracellular solution to minimize the activation of ionotropic glutamate receptors and voltage-gated sodium channels, respectively. All experiments were performed at room temperature. Recordings from at least six HEK293 cells/neurons were performed for all active compounds. […]

GluN1/GluN2A^M112I = molecular target: T2, GluN1/GluN2A^M112I (Rattus norvegicus, UniProt P35439+Q00959, M112I); assay: Patch clamp in HEK293 cells expressing mutant GluN1/GluN2A M112I; format: cell-based
T2 construct: expressed in transfected cells; host or cells: HEK293
Description: as §1

GluN1/GluN2A^A108G = molecular target: T3, GluN1/GluN2A^A108G (Rattus norvegicus, UniProt P35439+Q00959, A108G); assay: Patch clamp in HEK293 cells expressing mutant GluN1/GluN2A A108G; format: cell-based
T3 construct: expressed in transfected cells; host or cells: HEK293
Description: as §1

[1] = test system: CREB phosphorylation (pCREB) on Serine 133; assay: pCREB levels in hippocampal slices; design: species or system rat; conditions: 10 μM; 30 min exposure; FIG. 21
Description: Male Sprague Dawley rats 4-8 weeks old (125-200 gm) were decapitated, and their brains were dissected rapidly and placed into ice-cold chopping saline [containing (in mM): 110 sucrose, 60 NaCl, 3 KCl, 1.25 NaH2PO4, 28 NaHCO3, 5 D-glucose, 0.5 CaCl2, 7 MgCl2, and 0.6 ascorbate, saturated with 95% O2/5% CO2]. Then 400 μm transverse slices were prepared with a Vibratome Series 1000 (Pelco, Ted Pella, Redding, Calif.). Slices were transferred immediately into a 1:1 mix of chopping saline and normal ACSF [containing (in mM): 125 NaCl, 2.5 KCl, 1.25 NaH2PO4, 25 NaHCO3, 10 D-glucose, 2 CaCl2, and 1 MgCl2, saturated with 95% O2/5% CO2] and maintained at room temperature for at least 90 min. Then the slices were transferred to ACSF at 32° C. in a submersion chamber for 45-60 min before pharmacological stimulation.
Brain tissues or cultured cells were lysed on ice in the lysis buffer and then the solution was centrifuged at 14,000 rpm for 10 min at 4° C. Next, the supernatant was collected and protein concentrations were determined using a BCA protein assay kit (Thermo Scientific, 23227). […] The band density of each protein was quantified by the Bio-Rad Quantity One software and the relative optical density was analyzed relative to loading total-CREB on the same membrane. […]

T3 sequence (Q00959 23-1464 A108G, other chains not shown): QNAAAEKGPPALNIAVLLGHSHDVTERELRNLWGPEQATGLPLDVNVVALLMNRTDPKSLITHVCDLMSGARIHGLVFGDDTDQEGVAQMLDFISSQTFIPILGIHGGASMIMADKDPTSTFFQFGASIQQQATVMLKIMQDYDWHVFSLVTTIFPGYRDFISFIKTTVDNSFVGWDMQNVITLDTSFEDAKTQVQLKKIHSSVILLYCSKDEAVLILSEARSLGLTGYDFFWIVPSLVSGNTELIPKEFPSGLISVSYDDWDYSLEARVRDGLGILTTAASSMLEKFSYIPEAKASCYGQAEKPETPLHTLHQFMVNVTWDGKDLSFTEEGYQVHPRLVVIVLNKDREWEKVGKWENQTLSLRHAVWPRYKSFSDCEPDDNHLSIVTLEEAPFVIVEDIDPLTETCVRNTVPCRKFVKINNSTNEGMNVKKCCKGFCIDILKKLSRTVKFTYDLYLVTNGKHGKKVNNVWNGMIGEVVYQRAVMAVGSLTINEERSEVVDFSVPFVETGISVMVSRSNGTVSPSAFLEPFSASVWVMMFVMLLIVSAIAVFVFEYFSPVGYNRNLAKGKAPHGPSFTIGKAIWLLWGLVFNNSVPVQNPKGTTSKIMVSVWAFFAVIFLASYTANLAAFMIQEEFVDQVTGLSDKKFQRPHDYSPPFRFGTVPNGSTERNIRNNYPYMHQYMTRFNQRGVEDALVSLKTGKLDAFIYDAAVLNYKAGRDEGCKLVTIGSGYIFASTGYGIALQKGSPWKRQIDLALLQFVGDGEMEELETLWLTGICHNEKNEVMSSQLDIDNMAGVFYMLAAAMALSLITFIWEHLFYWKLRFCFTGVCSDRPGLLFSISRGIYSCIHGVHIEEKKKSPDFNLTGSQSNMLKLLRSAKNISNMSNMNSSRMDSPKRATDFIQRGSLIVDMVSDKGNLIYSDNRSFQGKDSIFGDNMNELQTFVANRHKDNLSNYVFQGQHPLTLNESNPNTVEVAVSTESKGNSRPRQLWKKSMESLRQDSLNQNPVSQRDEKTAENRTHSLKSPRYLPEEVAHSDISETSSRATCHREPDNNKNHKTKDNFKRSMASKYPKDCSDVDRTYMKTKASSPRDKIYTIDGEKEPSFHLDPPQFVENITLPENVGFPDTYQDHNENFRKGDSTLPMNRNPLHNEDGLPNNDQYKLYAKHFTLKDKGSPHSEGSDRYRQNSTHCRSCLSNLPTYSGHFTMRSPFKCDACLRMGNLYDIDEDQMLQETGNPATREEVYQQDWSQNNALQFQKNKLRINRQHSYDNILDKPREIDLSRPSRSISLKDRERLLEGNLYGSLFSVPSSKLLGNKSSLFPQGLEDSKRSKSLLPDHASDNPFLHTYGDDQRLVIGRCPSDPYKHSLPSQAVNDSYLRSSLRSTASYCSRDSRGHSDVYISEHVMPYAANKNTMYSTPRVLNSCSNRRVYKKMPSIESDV
T2 sequence (Q00959 23-1464 M112I, other chains not shown): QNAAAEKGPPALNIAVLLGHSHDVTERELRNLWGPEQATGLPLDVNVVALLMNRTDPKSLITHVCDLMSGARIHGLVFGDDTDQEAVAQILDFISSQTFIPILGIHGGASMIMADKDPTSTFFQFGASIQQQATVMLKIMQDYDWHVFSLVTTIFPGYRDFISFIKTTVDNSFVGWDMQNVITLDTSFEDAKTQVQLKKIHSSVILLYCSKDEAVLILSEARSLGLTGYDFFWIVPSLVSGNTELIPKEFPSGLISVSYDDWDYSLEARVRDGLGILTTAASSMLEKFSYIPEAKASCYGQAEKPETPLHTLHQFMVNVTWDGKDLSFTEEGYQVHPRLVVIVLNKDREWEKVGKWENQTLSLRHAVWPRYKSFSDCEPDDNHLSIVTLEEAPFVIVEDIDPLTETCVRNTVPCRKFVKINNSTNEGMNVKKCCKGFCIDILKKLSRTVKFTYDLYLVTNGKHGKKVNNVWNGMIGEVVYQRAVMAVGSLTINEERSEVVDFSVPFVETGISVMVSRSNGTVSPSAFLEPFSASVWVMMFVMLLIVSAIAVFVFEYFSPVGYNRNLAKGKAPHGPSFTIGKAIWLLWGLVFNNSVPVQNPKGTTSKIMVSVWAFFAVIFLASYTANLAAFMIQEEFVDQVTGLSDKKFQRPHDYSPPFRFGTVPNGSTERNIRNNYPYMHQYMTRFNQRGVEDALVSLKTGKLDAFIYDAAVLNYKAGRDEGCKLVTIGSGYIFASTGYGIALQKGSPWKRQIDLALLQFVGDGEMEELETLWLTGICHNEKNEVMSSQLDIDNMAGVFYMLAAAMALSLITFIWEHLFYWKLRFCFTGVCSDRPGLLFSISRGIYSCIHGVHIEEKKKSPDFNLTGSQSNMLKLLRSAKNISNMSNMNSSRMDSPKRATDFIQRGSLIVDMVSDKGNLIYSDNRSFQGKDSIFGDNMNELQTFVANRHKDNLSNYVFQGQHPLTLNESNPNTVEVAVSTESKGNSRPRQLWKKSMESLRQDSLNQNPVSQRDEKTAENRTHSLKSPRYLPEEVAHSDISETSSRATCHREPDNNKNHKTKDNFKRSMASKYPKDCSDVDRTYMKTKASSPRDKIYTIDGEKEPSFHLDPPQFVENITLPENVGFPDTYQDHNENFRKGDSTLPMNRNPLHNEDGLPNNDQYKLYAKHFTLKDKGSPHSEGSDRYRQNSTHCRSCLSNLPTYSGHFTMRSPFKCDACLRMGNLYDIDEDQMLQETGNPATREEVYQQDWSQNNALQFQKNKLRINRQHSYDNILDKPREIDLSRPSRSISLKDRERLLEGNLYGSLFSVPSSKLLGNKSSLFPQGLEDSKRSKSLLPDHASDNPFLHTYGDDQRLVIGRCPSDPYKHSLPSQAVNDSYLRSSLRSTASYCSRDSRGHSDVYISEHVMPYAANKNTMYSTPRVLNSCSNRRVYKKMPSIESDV
T1 sequence (Q00959 23-1464 F115Y, other chains not shown): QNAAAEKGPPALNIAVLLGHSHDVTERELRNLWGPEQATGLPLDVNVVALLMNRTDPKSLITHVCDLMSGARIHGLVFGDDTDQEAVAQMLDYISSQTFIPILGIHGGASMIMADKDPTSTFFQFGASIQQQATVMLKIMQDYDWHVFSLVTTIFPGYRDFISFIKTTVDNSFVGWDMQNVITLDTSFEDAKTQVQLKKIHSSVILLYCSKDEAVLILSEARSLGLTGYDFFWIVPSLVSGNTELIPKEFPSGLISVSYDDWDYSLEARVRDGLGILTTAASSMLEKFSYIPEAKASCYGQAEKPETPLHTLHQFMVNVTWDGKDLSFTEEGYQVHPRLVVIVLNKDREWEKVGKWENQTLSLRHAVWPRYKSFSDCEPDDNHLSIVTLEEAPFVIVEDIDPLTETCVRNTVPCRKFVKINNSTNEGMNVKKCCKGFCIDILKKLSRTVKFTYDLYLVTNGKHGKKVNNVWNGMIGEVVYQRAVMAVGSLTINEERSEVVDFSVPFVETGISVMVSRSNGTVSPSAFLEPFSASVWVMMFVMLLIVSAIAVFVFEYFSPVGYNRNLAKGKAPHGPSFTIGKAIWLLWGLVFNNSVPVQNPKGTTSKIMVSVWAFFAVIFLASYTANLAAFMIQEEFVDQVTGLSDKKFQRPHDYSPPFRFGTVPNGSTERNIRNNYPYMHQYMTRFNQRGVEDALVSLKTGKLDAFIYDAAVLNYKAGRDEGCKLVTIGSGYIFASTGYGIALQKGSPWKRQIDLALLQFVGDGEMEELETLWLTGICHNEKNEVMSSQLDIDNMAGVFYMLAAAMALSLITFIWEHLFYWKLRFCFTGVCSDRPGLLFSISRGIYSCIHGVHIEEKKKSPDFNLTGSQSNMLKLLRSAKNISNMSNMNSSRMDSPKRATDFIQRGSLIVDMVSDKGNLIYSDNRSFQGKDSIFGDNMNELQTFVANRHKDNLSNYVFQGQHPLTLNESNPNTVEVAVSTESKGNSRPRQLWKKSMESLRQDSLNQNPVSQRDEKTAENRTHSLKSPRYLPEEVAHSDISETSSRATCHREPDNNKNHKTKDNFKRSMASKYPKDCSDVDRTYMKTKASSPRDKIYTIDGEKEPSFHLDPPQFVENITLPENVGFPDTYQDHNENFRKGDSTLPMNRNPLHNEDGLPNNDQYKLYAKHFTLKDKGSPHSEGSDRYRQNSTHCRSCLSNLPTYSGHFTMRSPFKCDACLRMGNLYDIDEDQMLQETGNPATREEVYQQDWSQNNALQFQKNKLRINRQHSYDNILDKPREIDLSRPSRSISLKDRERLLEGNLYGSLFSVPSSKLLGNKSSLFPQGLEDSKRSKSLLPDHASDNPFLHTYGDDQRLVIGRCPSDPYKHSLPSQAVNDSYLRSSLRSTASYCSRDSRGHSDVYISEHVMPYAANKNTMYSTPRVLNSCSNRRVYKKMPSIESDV

CCOc1cc(Cl)c(Cl)c(/C=N/NC(=O)c2ccccc2Br)c1O [Npam43, (E)-2-bromo-N′-(2,3-dichloro-5-ethoxy-6-hydroxybenzylidene)benzohydrazide]
Relative potentiation (GluN1/GluN2A^F115Y; Table 3): 100 ± 4.2% | Net Difference potentiation (GluN1/GluN2A^F115Y; normalized to wild-type): −52.2 ± 0.52% | Relative potentiation (GluN1/GluN2A^M112I; Table 3): 255 ± 19% | Net Difference potentiation (GluN1/GluN2A^M112I; normalized to wild-type): +22.2 ± 0.94% | Relative potentiation (GluN1/GluN2A^A108G; Table 3): 210 ± 9.0% | Net Difference potentiation (GluN1/GluN2A^A108G; normalized to wild-type): +0.48 ± 0.01% | pCREB levels in hippocampal slices [1]: significantly enhanced pCREB levels
